Patent US20090215693A1, “METHODS FOR INCREASING HYALURONIC ACID LEVELS AND IMPROVING MOISTURE RETENTION IN TISSUE” (priority 2008, published 2009)

Test system: Fibroblasts
Experiment: Hyaluronic acid production by cultured fibroblasts (ELISA of culture medium)
Format: cell-based
Details: fibroblasts, 48 hours incubation, culture medium
Procedure: Fibroblasts were seeded into individual wells of a 12-well plate in 1.0 ml of Fibroblast Growth Media (FGM) and incubated overnight at 37±2° C. and 5±1% CO2. On the following day the media was removed via aspiration to eliminate non-adherent cells and replaced with 1.0 ml of fresh FGM. Cells were grown until confluent, with a media change every 48 to 72 hours. Upon reaching confluency the cells were treated for 24 hours with DMEM supplemented with 1.5% FBS to eliminate growth factors from the normal culture media. After this 24-hour wash-out period the cells were treated with the indicated test materials (i.e., milk-derived products containing lactoferrin) at the specified concentrations dissolved in FGM with 1.5% FBS. Dibutyrl cAMP (DBcAMP) at 0.1 mM was used as a positive control. Untreated cells (negative control) received FGM with 1.5% FBS. The cells were incubated for 48 hours and at the end of the incubation period cell culture medium was collected and either stored frozen (−75° C.) or assayed immediately. All testing was done in triplicate.
A series of hyaluronic acid standards from 50 ng/ml to 3,200 ng/ml was prepared. […] After incubation, 50 μl of stop solution was added to each well and the absorbance was measured at 405 nm using a plate reader. Hyaluronic acid production was expressed as ng/ml and results are shown in Table 1 and the graph of FIG. 1.

| Structure (SMILES) | HA Measured (amount applied 0.1 mM (positive control)) [ng/mL] | HA Measured (amount applied 4 mM) [ng/mL] |
| --- | --- | --- |
| CCCC(=O)Nc1ncnc2c1ncn2[C@@H]1O[C@@H]2COP(=O)(O)O[C@H]2[C@H]1OC(=O)CCC [DBcAMP, dibutyryl cyclic AMP] | 416 ± 24 |  |
| CCCC(=O)[O-].[Na+] [Sodium Butyrate] |  | 139 ± 6 |
